Key:
Format in all cases: in vivo
[1] = tested on: Abutilon theophrasti (ABUTH); assay: B3 Post-Emergence Efficacy—Test 3; settings: post-emergence application, 250 g/ha, evaluated after 13 days (Test 3)
Method: (§1) B3 Post-Emergence Efficacy—Test 3 Seeds of a variety of test species are sown in standard soil in pots:—Amaranthus retoflexus (AMARE), Setaria faberi (SETFA), Echinochloa crus-galli (ECHCG), Ipomoea hederacea (IPOHE), Zea Mays (ZEAMX), Abutilon theophrasti (ABUTH). After 8 days cultivation (post-emergence) under controlled conditions in a glasshouse (at 24/16° C., day/night; 14 hours light; 65% humidity), the plants are sprayed with an aqueous spray solution derived from the formulation of the technical active ingredient in acetone/water (50:50) solution containing 0.5% Tween 20 (polyoxyethylene sorbitan monolaurate, CAS RN 9005-64-5). Compounds are applied at 250 g/ha. The test plants are then grown in a glasshouse under controlled conditions in a glasshouse (at 24/16° C., day/night; 14 hours light; 65% humidity) and watered twice daily. After 13 days, the test is evaluated for the percentage damage caused to the plant. The biological activities are assessed on a five point scale (5=80-100%; 4=60-79%; 3=40-59%; 2=20-39%; 1=0-19%). A blank value in the table is indicative that the compound was not tested on that species.

[2] = tested on: Amaranthus retoflexus (AMARE); assay: B3 Post-Emergence Efficacy—Test 3; settings: post-emergence application, 250 g/ha, evaluated after 13 days (Test 3)
Method: as §1

[3] = tested on: Echinochloa crus-galli (ECHCG); assay: B3 Post-Emergence Efficacy—Test 3; settings: post-emergence application, 250 g/ha, evaluated after 13 days (Test 3)
Method: as §1

[4] = tested on: Ipomoea hederacea (IPOHE); assay: B3 Post-Emergence Efficacy—Test 3; settings: post-emergence application, 250 g/ha, evaluated after 13 days (Test 3)
Method: as §1

Setaria faberi (SETFA) [5] = assay: B3 Post-Emergence Efficacy—Test 3; settings: post-emergence application, 250 g/ha, evaluated after 13 days (Test 3)
Method: as §1

Zea Mays (ZEAMX) [6] = assay: B3 Post-Emergence Efficacy—Test 3; settings: post-emergence application, 250 g/ha, evaluated after 13 days (Test 3)
Method: as §1

[7] = tested on: Abutilon theophrasti (ABUTH); assay: B6 Pre-Emergence Efficacy—Test 3; settings: pre-emergence application, 250 g/ha, evaluated after 13 days (Test 3)
Method: (§2) B6 Pre-Emergence Efficacy—Test 3 Seeds of a variety of test species were sown in standard soil in pots: Amaranthus retoflexus (AMARE), Setaria faberi (SETFA), Echinochloa crus-galli (ECHCG), Ipomoea hederacea (IPOHE), Zea Mays (ZEAMX), Abutilon theophrasti (ABUTH). After cultivation for one day (pre-emergence) under controlled conditions in a glasshouse (at 24/16° C., day/night; 14 hours light; 65% humidity), the plants were sprayed with an aqueous spray solution derived from the formulation of the technical active ingredient in acetone/water (50:50) solution containing 0.5% Tween 20 (polyoxyethelyene sorbitan monolaurate, CAS RN 9005-64-5). Compounds are applied at 250 g/ha. The test plants were then grown in a glasshouse under controlled conditions (at 24/16° C., day/night; 14 hours light; 65% humidity) and watered twice daily. After 13 days, the test is evaluated for the percentage damage caused to the plant. The biological activities are assessed on a five point scale (5=80-100%; 4=60-79%; 3=40-59%; 2=20-39%; 1=0-19%). A blank value in the table is indicative that the compound was not tested on that species.

[8] = tested on: Amaranthus retoflexus (AMARE); assay: B6 Pre-Emergence Efficacy—Test 3; settings: pre-emergence application, 250 g/ha, evaluated after 13 days (Test 3)
Method: as §2

[9] = tested on: Echinochloa crus-galli (ECHCG); assay: B6 Pre-Emergence Efficacy—Test 3; settings: pre-emergence application, 250 g/ha, evaluated after 13 days (Test 3)
Method: as §2

[10] = tested on: Ipomoea hederacea (IPOHE); assay: B6 Pre-Emergence Efficacy—Test 3; settings: pre-emergence application, 250 g/ha, evaluated after 13 days (Test 3)
Method: as §2

Setaria faberi (SETFA) [11] = assay: B6 Pre-Emergence Efficacy—Test 3; settings: pre-emergence application, 250 g/ha, evaluated after 13 days (Test 3)
Method: as §2

Zea Mays (ZEAMX) [12] = assay: B6 Pre-Emergence Efficacy—Test 3; settings: pre-emergence application, 250 g/ha, evaluated after 13 days (Test 3)
Method: as §2

| SMILES | percentage damage caused to the plant, five point scale, ABUTH [1] | percentage damage caused to the plant, five point scale, AMARE [2] | percentage damage caused to the plant, five point scale, ECHCG [3] | percentage damage caused to the plant, five point scale, IPOHE [4] | percentage damage caused to the plant, five point scale, SETFA (Setaria faberi (SETFA) [5]) | percentage damage caused to the plant, five point scale, ZEAMX (Zea Mays (ZEAMX) [6]) | percentage damage caused to the plant, five point scale, ABUTH [7] | percentage damage caused to the plant, five point scale, AMARE [8] | percentage damage caused to the plant, five point scale, ECHCG [9] | percentage damage caused to the plant, five point scale, IPOHE [10] | percentage damage caused to the plant, five point scale, SETFA (Setaria faberi (SETFA) [11]) | percentage damage caused to the plant, five point scale, ZEAMX (Zea Mays (ZEAMX) [12]) |
| --- | --- | --- | --- | --- | --- | --- | --- | --- | --- | --- | --- | --- |
| Cc1nn(C)c(=O)c(-c2c(F)ccc(Cl)c2CCc2ccc(-c3ncco3)cc2)c1O [Compound A-1.382] | 4 (4=60-79%) | 4 (4=60-79%) | 4 (4=60-79%) | 5 (5=80-100%) | 4 (4=60-79%) | 5 (5=80-100%) | 4 (4=60-79%) | 5 (5=80-100%) | 5 (5=80-100%) | 5 (5=80-100%) | 5 (5=80-100%) | 4 (4=60-79%) |
| Cc1nn(C)c(=O)c(-c2c(F)ccc(Cl)c2CCc2cnn(-c3ccccc3)c2)c1O [Compound A-1.386] | 3 (3=40-59%) | 4 (4=60-79%) | 4 (4=60-79%) | 4 (4=60-79%) | 4 (4=60-79%) | 4 (4=60-79%) | 2 (2=20-39%) | 2 (2=20-39%) | 5 (5=80-100%) | 4 (4=60-79%) | 5 (5=80-100%) | 2 (2=20-39%) |
| Cc1nn(C)c(=O)c(-c2c(F)ccc(Cl)c2CCc2cnn(C3CC3)c2)c1O [Compound A-1.387] | 4 (4=60-79%) | 4 (4=60-79%) | 4 (4=60-79%) | 4 (4=60-79%) | 4 (4=60-79%) | 4 (4=60-79%) | 4 (4=60-79%) | 5 (5=80-100%) | 5 (5=80-100%) | 5 (5=80-100%) | 5 (5=80-100%) | 4 (4=60-79%) |
| CSCc1ccc(CCc2c(Cl)ccc(F)c2-c2c(O)c(C)nn(C)c2=O)cc1 [Compound A-1.388, 4-[3-chloro-6-fluoro-2-[2-[4-(methylsulfanylmethyl)phenyl]ethyl]phenyl]-5-hydroxy-2,6-dimethyl-pyridazin-3-one] | 5 (5=80-100%) | 5 (5=80-100%) | 4 (4=60-79%) | 4 (4=60-79%) | 4 (4=60-79%) | 4 (4=60-79%) | 5 (5=80-100%) | 5 (5=80-100%) | 5 (5=80-100%) | 5 (5=80-100%) | 5 (5=80-100%) | 4 (4=60-79%) |
| Cc1nn(C)c(=O)c(-c2c(F)ccc(Cl)c2CCc2ccc(CSC(C)C)cc2)c1O [Compound A-1.389] | 4 (4=60-79%) | 4 (4=60-79%) | 5 (5=80-100%) | 5 (5=80-100%) | 5 (5=80-100%) | 5 (5=80-100%) | 3 (3=40-59%) | 5 (5=80-100%) | 5 (5=80-100%) | 5 (5=80-100%) | 5 (5=80-100%) | 4 (4=60-79%) |
| Cc1nn(C)c(=O)c(-c2c(F)ccc(C3CC3)c2CCc2ccnc(F)c2)c1O [Compound C-1.013, 4-[3-cyclopropyl-6-fluoro-2-[2-(2-fluoro-4-pyridyl)ethyl]phenyl]-5-hydroxy-2,6-dimethyl-pyridazin-3-one] | 4 (4=60-79%) | 5 (5=80-100%) | 5 (5=80-100%) | 4 (4=60-79%) | 4 (4=60-79%) | 4 (4=60-79%) | 5 (5=80-100%) | 5 (5=80-100%) | 5 (5=80-100%) | 5 (5=80-100%) | 5 (5=80-100%) | 4 (4=60-79%) |

Source: US12540120B2, “Herbicidal compounds” (SYNGENTA CROP PROTECTION AG, priority 2019, dated 2026)
